Laboratory results from paper PMC6764862 (Xenobiotica; the fate of foreign compounds in biological …, 2019).
Read-outs that look alike come from different tables or passages of the source.

Assays:
[1] = test system: mouse AhR (mAhR); conditions: for REP ratio Hepa1c1c7/HepG2: mouse REP over human REP
[2] = biological target: T1, mouse AhR (mAhR) (Mus musculus, UniProt P30561); conditions: for Relative effect potency (REP) Hepa1c1c7: EC50-based, relative to TCDD, murine system; for maximum response, luciferase activity: concentration-response
T1 sequence (P30561 10-848): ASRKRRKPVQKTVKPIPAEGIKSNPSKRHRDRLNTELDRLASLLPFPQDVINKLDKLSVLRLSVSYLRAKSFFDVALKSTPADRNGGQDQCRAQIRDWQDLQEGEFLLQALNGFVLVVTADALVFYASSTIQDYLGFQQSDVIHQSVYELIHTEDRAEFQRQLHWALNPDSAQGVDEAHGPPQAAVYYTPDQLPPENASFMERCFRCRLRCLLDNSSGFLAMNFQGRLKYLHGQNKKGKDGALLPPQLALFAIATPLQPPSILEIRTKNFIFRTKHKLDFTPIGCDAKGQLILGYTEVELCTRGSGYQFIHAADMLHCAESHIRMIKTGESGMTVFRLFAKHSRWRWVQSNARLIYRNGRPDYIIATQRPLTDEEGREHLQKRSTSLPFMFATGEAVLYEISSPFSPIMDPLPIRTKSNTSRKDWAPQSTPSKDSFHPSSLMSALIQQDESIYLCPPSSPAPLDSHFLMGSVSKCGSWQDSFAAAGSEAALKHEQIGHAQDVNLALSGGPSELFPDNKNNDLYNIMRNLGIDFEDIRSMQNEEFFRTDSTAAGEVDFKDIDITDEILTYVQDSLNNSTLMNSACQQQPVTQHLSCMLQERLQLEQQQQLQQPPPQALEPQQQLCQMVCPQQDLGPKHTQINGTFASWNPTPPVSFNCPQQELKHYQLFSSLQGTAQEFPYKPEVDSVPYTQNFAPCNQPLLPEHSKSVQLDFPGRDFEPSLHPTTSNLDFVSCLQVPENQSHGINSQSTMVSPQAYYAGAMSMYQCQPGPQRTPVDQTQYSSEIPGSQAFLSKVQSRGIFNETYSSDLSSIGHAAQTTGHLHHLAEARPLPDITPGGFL

[3] = biological target: T2, human AhR (hAhR) (Homo sapiens, UniProt P35869); test: AhR-dependent pXRE-SV40-Luc luciferase reporter in HepG2 cells; assay type: cell-based; conditions: for Relative effect potency (REP) HepG2: EC50-based, relative to TCDD, human system; for maximum response, luciferase activity: concentration-response
T2 sequence (P35869 11-848): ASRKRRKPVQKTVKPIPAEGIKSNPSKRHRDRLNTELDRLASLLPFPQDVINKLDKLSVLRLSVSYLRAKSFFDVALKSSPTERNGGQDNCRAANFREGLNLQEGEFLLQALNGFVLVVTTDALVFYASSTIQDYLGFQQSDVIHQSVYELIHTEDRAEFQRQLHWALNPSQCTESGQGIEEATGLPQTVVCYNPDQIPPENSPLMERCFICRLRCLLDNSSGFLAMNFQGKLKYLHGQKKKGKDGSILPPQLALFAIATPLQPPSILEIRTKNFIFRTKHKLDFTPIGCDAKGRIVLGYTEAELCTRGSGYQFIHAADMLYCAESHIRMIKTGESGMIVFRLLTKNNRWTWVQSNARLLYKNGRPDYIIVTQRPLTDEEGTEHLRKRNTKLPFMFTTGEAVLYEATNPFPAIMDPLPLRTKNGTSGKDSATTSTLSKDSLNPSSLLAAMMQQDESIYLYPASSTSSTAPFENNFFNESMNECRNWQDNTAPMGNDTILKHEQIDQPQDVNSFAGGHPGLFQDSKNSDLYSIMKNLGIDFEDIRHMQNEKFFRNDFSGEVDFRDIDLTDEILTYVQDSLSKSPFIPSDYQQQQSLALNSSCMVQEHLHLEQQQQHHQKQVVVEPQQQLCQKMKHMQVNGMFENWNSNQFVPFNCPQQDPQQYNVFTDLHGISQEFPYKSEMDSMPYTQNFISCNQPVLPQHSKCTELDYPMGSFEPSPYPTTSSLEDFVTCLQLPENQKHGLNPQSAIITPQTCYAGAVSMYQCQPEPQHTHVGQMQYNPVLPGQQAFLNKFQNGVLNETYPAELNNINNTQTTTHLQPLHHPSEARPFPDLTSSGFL

[4] = test system: EGFR; conditions: up to; highest potency of all congeners tested; ref Hardesty et al., 2018; cited from earlier work
[5] = test system: Cyp1a1 (AhR target gene); test: Cyp1a1 mRNA induction in primary mouse hepatocytes; assay type: cell-based; conditions: primary mouse hepatocytes
[6] = test system: CYP1A1 (AhR target gene); test: CYP1A1 mRNA induction in primary human hepatocytes; assay type: cell-based; conditions: primary human hepatocytes
[7] = biological target: T1, mouse AhR (mAhR); test: in vitro; conditions: hepa1c1c7 cells
[8] = test system: Cyp1a1 mRNA (AhR target gene); test: Cyp1a1 mRNA induction in primary mouse hepatocytes; assay type: cell-based; conditions: male, C57BL/6, mouse
[9] = test system: CYP1A1 mRNA (AhR target gene); test: CYP1A1 mRNA induction in primary human hepatocytes; assay type: cell-based; conditions: human
[10] = read-out: EC50 for AhR luciferase reporter activity, HepG2 cells, 24 h treatment

Structure (SMILES)	REP ratio Hepa1c1c7/HepG2 [1]	Relative effect potency (REP) Hepa1c1c7 [2]	Relative effect potency (REP) HepG2 [3]	EC50 [3, 10]	fold higher EC50 in Hepa1c1c7 cells compared to HepG2 cells ([1]; luciferase reporter)	maximum response, luciferase activity ([2]; Hepa1c1c7 cells)	maximum response, luciferase activity ([3]; HepG2 cells)	WHO 2005 TEF fold lower than the human REP ([3]; TEF vs HepG2 REP of this study)	IC50 for EGFR inhibition [4]	fold more potent (lower EC50) in Hepa1c1c7 than in HepG2, luciferase reporter ([1]; mAhR vs hAhR, cell lines)	luciferase activity increase ([2]; Hepa1c1c7 cells, 10 μM, 24 h, positive controls)	luciferase activity increase ([3]; HepG2 cells, 10 μM, 24 h, positive controls)	WHO 2005 TEF fold higher than the human REP ([3]; TEF vs HepG2 REP of this study)	maximal induction of Cyp1a1 mRNA [5]	maximal induction of CYP1A1 mRNA [6]	EC50 ([6]; read-out: EC50 for induction of CYP1A1 mRNA, 24 h)	maximal fold induction at 24 h [7]	EC50 [3]	EC50 at 24 h [8]	EC50 at 24 h [9]
Clc1ccc(-c2ccc(Cl)c(Cl)c2)cc1Cl [PCB 77]	≥ 3.3	0.0003	≤ 0.00009	≥ 4000 nM	–	–	–	–	–	–	–	–	–	–	–	–	–	–	–	–
Clc1ccc(-c2cc(Cl)c(Cl)c(Cl)c2)cc1 [PCB 81]	0.015	0.0009	0.06	6.8 ± 2.7 nM	approximately 5 fold	2.3 fold	34.6 fold	200 fold	–	–	–	–	–	–	–	–	–	–	–	–
Clc1ccc(-c2cc(Cl)c(Cl)c(Cl)c2Cl)cc1 [PCB 114]	≥ 0.5	0.00004	≤ 0.00007	≥ 5000 nM	–	–	–	–	–	–	–	–	–	–	–	–	–	–	–	–
Clc1ccc(-c2cc(Cl)c(Cl)c(Cl)c2)cc1Cl [PCB 126]	3	0.006	0.002	250 ± 150 nM	–	5.9 fold	31.6 fold	–	−16.07 ± 0.31 log M	approximately 53 fold	3.7 fold	42 fold	50 fold	53.3 fold	45.1 fold	195 ± 35 nM	–	–	–	–
Clc1cc(-c2cc(Cl)c(Cl)c(Cl)c2)cc(Cl)c1Cl [PCB 169]	≥ 20	0.001	≤ 0.00005	≥ 7000 nM	–	–	–	–	–	–	–	–	> 300 fold	–	–	–	–	–	–	–
Clc1cc2c(cc1Cl)Oc1cc(Cl)c(Cl)cc1O2 [TCDD, 2,3,7,8-tetrachlorodibenzo-p-dioxin, reference compound]	1	–	1	–	–	–	83 fold	–	–	–	–	–	–	–	–	–	2.2	0.4 ± 0.1 nM	0.04 ± 0.02 nM	0.45 ± 0.34 nM
